Targets include Melanocortin receptor 4 (Homo sapiens, UniProt P32245); Vasopressin V1a receptor (Homo sapiens, UniProt P37288); Histamine H1 receptor (Homo sapiens, UniProt P35367).
Assay [1] deals with T1, Cannabinoid receptor 1 (Homo sapiens, UniProt P21554).
Assay [2] has as its target T2, 5-hydroxytryptamine receptor 2A (Homo sapiens, UniProt P28223). Type of assay: functional, cell-based.
Assay [3] has as its target Sodium-dependent serotonin transporter (Homo sapiens, UniProt P31645).
The target in assay [4] is T3, Alpha-2B adrenergic receptor (Homo sapiens, UniProt P18089).
T3 sequence (P18089 whole entry): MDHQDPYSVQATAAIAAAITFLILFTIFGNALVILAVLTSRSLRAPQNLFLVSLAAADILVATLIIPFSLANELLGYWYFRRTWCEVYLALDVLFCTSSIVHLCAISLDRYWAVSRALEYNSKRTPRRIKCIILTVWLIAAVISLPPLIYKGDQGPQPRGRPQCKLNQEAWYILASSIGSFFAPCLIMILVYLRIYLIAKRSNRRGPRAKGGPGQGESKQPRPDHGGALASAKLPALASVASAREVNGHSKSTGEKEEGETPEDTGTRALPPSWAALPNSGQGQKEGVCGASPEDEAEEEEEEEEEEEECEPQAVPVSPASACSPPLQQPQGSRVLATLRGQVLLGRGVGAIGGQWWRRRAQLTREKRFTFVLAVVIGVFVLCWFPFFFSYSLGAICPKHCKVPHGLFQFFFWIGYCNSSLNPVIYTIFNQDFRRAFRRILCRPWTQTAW

Another assay concerns the target T4, Adenosine receptor A1 (Homo sapiens, UniProt P30542).
T4 sequence (P30542 whole entry): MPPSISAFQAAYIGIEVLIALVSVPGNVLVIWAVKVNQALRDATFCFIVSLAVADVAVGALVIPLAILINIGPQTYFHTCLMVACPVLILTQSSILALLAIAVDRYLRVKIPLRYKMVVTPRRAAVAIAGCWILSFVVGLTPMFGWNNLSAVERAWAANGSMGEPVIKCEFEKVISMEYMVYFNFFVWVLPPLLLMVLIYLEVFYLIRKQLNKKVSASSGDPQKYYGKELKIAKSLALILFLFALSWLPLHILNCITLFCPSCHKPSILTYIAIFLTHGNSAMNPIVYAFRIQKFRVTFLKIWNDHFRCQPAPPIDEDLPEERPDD

In assay [5] the target is T2, 5-hydroxytryptamine receptor 2A. Type of assay: functional, cell-based. The source holds these as a separate data set.
The target of assay [6] is T5, Mu-type opioid receptor (Homo sapiens, UniProt P35372). The assay is described as follows: biochemical. Type of assay: functional.
Assay [7] has as its target Muscarinic acetylcholine receptor M3 (Homo sapiens, UniProt P20309).
Assay [8] deals with T5, Mu-type opioid receptor.
The target of assay [9] is T1, Cannabinoid receptor 1. Type of assay: functional, cell-based.
Assay [10] concerns the target T6, Gastrin/cholecystokinin type B receptor (Homo sapiens, UniProt P32239).
T6 sequence (P32239 whole entry): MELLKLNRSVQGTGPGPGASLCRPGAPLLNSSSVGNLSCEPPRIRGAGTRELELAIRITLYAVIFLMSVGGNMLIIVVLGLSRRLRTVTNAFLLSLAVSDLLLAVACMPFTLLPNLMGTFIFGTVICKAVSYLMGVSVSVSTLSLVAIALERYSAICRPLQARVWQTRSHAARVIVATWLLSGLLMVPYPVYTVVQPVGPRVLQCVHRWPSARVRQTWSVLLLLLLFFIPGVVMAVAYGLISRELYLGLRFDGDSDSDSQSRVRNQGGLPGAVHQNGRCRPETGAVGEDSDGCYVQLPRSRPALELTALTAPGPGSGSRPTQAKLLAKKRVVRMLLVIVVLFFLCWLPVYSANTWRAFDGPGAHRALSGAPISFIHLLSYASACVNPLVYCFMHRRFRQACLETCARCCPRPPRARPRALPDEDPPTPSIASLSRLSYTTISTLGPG

Assay [11] has as its target Beta-2 adrenergic receptor (Homo sapiens, UniProt P07550). The format is functional, cell-based.
For assay [12], the target named is Gamma-aminobutyric acid receptor subunit alpha-1/alpha-2/beta-2/gamma-2 (Homo sapiens, UniProt P14867+P18507+P47869+P47870). The format is functional, cell-based.
A further assay has as its target T7, Androgen receptor (Rattus norvegicus, UniProt P15207).
T7 sequence (P15207 whole entry): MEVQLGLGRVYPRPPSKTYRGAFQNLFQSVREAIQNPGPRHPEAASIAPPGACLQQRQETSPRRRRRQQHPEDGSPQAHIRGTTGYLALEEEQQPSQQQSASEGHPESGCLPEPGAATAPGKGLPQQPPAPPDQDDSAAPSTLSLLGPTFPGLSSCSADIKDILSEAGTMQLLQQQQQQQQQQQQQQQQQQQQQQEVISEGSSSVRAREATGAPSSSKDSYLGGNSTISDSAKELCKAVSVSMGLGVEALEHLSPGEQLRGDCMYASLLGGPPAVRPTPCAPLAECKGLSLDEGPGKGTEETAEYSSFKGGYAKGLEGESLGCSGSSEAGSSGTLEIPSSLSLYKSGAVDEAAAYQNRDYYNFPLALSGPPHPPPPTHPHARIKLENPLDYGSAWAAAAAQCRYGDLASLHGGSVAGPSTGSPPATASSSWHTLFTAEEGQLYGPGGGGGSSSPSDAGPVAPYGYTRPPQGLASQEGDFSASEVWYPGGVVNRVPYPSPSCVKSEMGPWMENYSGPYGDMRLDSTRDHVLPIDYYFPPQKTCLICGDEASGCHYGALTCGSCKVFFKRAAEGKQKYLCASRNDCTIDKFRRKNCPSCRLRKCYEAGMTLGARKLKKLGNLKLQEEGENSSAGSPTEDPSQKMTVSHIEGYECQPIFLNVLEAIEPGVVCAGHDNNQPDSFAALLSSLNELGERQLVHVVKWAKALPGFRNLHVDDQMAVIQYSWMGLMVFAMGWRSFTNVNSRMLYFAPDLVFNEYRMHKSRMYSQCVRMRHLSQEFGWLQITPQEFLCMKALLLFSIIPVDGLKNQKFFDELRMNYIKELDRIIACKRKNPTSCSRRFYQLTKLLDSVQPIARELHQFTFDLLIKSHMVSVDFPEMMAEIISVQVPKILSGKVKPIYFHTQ
Type of assay: functional.
Note: assay procedure not described here.

Melanocortin receptor 4, sequence (P32245 whole entry): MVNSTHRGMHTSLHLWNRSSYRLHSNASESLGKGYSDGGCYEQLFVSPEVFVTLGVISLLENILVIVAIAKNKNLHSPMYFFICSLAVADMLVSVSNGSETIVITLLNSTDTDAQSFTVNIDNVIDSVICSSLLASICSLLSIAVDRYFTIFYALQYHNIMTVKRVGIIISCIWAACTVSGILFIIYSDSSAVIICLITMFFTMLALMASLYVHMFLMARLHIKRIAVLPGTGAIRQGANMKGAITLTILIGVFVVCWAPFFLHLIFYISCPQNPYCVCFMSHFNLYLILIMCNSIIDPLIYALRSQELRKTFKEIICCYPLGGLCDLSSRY
T5 sequence (P35372 whole entry): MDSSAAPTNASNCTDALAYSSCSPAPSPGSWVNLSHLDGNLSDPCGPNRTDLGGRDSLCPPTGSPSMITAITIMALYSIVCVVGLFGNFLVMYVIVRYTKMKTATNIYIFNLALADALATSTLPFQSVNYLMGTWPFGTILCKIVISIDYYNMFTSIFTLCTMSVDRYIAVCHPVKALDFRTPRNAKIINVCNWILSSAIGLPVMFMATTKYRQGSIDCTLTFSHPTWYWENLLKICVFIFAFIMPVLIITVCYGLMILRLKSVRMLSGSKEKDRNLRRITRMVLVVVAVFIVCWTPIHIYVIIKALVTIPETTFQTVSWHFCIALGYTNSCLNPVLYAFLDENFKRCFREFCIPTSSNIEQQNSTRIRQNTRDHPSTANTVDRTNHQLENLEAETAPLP
Sodium-dependent serotonin transporter, sequence (P31645 whole entry): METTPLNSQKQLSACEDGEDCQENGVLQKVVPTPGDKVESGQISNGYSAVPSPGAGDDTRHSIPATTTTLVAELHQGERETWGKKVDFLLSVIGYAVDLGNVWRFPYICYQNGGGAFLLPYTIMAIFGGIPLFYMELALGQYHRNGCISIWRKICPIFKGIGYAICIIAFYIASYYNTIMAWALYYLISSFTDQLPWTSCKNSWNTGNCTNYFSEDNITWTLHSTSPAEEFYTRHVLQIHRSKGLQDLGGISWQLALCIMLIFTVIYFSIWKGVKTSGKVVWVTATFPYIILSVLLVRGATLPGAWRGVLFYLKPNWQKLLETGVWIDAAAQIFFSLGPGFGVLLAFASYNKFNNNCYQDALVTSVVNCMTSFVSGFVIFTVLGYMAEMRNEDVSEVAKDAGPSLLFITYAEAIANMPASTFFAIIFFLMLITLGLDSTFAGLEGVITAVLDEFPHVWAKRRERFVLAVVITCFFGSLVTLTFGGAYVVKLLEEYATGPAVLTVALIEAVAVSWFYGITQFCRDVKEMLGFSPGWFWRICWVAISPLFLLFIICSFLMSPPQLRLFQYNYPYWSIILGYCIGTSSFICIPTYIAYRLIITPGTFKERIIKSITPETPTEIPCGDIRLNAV
Histamine H1 receptor, sequence (P35367 whole entry): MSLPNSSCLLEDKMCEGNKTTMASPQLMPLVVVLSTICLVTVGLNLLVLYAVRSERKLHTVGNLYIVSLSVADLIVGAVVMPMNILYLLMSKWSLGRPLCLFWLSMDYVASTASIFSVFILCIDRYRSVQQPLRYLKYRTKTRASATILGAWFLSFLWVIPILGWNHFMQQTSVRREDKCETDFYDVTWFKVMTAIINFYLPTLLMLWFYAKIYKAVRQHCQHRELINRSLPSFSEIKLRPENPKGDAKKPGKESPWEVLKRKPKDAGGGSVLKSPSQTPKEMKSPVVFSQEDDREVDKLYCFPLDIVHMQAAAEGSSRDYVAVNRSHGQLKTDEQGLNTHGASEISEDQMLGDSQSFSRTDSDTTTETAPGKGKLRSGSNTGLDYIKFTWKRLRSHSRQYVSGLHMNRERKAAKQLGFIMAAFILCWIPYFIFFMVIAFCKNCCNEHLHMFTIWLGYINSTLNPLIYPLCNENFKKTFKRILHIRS
Muscarinic acetylcholine receptor M3, sequence (P20309 whole entry): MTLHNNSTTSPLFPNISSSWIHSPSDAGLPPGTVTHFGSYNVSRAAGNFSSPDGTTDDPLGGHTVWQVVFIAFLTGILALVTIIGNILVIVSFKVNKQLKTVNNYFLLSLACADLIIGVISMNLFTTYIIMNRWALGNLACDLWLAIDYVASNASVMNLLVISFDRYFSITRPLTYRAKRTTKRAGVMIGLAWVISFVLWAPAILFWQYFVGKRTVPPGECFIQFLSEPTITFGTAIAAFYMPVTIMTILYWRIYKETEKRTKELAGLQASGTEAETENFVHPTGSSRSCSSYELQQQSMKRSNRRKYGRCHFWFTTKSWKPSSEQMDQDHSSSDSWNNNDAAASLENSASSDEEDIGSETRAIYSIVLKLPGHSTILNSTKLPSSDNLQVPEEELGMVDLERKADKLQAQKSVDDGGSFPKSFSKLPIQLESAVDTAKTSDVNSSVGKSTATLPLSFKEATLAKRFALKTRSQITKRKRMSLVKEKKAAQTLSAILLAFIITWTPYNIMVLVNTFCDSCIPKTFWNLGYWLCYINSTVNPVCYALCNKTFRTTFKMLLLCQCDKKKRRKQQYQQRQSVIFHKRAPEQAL
T1 sequence (P21554 whole entry): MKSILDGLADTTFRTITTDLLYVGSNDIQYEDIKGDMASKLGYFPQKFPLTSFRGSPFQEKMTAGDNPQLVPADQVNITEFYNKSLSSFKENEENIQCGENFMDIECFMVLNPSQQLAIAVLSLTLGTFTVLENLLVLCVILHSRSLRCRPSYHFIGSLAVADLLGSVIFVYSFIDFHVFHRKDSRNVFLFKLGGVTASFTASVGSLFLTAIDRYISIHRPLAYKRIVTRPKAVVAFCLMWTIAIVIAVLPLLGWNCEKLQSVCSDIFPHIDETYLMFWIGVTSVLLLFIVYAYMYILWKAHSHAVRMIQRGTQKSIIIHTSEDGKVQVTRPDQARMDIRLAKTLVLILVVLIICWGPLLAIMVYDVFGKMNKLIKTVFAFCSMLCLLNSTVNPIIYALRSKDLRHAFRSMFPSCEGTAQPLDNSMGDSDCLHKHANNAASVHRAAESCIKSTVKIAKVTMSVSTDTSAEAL
Vasopressin V1a receptor, sequence (P37288 whole entry): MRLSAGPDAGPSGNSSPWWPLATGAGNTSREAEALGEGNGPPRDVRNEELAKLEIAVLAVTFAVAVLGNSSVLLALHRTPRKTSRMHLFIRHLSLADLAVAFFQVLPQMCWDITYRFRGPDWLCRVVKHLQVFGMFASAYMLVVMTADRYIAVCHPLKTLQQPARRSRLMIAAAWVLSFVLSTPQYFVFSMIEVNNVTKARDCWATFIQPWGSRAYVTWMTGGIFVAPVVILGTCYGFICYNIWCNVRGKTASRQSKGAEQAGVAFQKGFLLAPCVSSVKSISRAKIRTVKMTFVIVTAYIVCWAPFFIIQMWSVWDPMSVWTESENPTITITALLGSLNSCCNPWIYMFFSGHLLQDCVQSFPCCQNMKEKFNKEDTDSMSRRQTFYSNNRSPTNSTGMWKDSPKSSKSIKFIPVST
T2 sequence (P28223 whole entry): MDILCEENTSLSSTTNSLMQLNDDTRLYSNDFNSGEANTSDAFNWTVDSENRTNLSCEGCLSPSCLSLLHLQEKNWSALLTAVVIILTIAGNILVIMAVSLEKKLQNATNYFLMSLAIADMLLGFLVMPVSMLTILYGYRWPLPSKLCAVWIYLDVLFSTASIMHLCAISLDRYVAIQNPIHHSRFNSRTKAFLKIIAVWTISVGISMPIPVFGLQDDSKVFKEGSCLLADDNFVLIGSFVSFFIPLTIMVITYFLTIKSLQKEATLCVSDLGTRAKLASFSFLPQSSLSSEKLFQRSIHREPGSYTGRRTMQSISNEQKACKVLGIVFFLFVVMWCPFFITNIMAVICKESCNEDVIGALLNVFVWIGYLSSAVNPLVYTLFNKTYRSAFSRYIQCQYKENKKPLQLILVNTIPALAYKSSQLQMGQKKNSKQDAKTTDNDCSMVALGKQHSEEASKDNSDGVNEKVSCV
Beta-2 adrenergic receptor, sequence (P07550 whole entry): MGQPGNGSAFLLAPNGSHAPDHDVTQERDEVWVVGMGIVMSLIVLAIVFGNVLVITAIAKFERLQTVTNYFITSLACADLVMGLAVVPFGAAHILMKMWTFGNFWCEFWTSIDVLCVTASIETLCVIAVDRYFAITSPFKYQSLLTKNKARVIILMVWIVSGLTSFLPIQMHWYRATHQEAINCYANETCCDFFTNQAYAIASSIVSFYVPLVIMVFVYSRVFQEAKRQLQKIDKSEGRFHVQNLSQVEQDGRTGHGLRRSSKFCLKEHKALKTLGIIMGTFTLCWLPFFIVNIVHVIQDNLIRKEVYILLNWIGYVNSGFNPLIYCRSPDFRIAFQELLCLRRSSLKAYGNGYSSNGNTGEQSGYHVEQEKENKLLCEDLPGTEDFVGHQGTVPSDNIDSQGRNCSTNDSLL

Broadly, the AC50 is the concentration at which the activity in the assay is half-maximal. Lower therefore signals activity at low concentration. On to `COc1ccc(CCNCC(O)COc2cccc(C)c2)cc1OC` (stereo unspecified) [BEVANTOLOL], for which the AC50 at Cannabinoid receptor 1 [1] was over 10 µM; in assay [2] it was over 10 µM; in assay [3], 3 µM; on Melanocortin receptor 4 it was over 10 µM; in assay [4], over 10 µM; on Vasopressin V1a receptor it was over 10 µM. In addition, the concentration at half-maximal activity (AC50) was over 10 µM on Adenosine receptor A1; over 10 µM in assay [5]; over 30 µM on Mu-type opioid receptor [6]; over 30 µM in assay [7]; over 10 µM on Histamine H1 receptor; over 10 µM at Mu-type opioid receptor [8]. The compound further displayed an AC50 at Cannabinoid receptor 1 [9] of over 30 µM.

As to `Brc1c(NC2=NCCN2)ccc2nccnc12` [BRIMONIDINE], the AC50 (in [10]; on Adenosine receptor A1; at Mu-type opioid receptor [6]; in assay [11]; in [12]; on Cannabinoid receptor 1 [9]) was over 30 µM in each case.

As to `CC(CC1c2ccccc2CCc2ccccc21)CN(C)C` (stereo unspecified) [BUTRIPTYLINE], the AC50 in assay [2] was 15 µM; in assay [4] it was 5 µM; in [5], over 30 µM; in assay [7] it was 1.4 µM; in assay [11] it was over 30 µM; at Histamine H1 receptor, 0.015 µM. Further, the AC50 (in [12]; at Cannabinoid receptor 1 [9]) was over 30 µM in each case.

For `CC(C)(C)NCC(O)COc1cccc2c1CCC(=O)N2` (stereo unspecified) [CARTEOLOL], the half-maximal activity concentration (AC50) (in assay [2]; in assay [3]; at Melanocortin receptor 4; in assay [4]; at Vasopressin V1a receptor; on Adenosine receptor A1) was over 10 µM in each case. The AC50 was over 10 µM in assay [5]; over 30 µM in assay [7]; over 10 µM at Histamine H1 receptor; over 30 µM at Mu-type opioid receptor [8]; over 30 µM at Cannabinoid receptor 1 [9].

As to `Nc1nc(Cl)nc2c1ncn2[C@H]1C[C@H](O)[C@@H](CO)O1` [CLADRIBINE], the AC50 (in [10]; on Adenosine receptor A1; on Mu-type opioid receptor [6]; in [11]; in assay [12]; at Cannabinoid receptor 1 [9]) was over 30 µM throughout.

In the case of `Clc1ccccc1C(c1ccccc1)(c1ccccc1)n1ccnc1` [CLOTRIMAZOLE], the AC50 is over 10 µM on Cannabinoid receptor 1 [1], over 30 µM in [11] and over 30 µM at Cannabinoid receptor 1 [9].

With `COc1ccc2c3c1O[C@H]1[C@@H](O)CC[C@H]4[C@@H](C2)N(C)CC[C@@]341` [DIHYDROCODEINE], the AC50 (in [2]; in [4]; in assay [5]; in [7]; in assay [11]; at Histamine H1 receptor) was over 30 µM throughout. Further, the AC50 (in [12]; on Cannabinoid receptor 1 [9]) was over 30 µM in each case.

In the case of `NC(=O)OCC(COC(N)=O)c1ccccc1` [FELBAMATE], the AC50 (on Cannabinoid receptor 1 [1]; in assay [2]; in assay [3]; at Melanocortin receptor 4; in assay [4]; on Vasopressin V1a receptor) was over 10 µM each time. Besides, the AC50 on Adenosine receptor A1 was over 10 µM; in [5] it was over 10 µM; in [7], over 30 µM; at Histamine H1 receptor it was over 10 µM; on Mu-type opioid receptor [8], over 30 µM.

`Fc1ccc(C(c2ccccc2)(c2ccccc2F)n2ccnc2)cc1` (stereo unspecified) [FLUTRIMAZOLE]: the AC50 in assay [2] is over 30 µM; in [3], over 30 µM; in [10], 25 µM; in [4] it was over 30 µM; on Vasopressin V1a receptor, over 30 µM; on Adenosine receptor A1, over 30 µM. Moreover, the AC50 (in assay [5]; on Mu-type opioid receptor [6]; in assay [7]; on Histamine H1 receptor; at Cannabinoid receptor 1 [9]; on Androgen receptor) was over 30 µM throughout.

As for `Cc1c(OCC(F)(F)F)ccnc1C[S+]([O-])c1nc2ccccc2[nH]1` (stereo unspecified) [LANSOPRAZOLE], the AC50 at Melanocortin receptor 4 is over 30 µM; in assay [10], 22 µM; at Vasopressin V1a receptor, over 10 µM; at Adenosine receptor A1, 16.8 µM; on Mu-type opioid receptor [6], 4.2 µM; on Mu-type opioid receptor [8], 4 µM. The compound also had an AC50 at Cannabinoid receptor 1 [9] of over 30 µM.

With `C[C@H]1COc2c(C3(N)CC3)c(F)cc3c(=O)c(C(=O)O)cn1c23` [PAZUFLOXACIN], the AC50 (on Cannabinoid receptor 1 [1]; in assay [2]; in [3]; on Melanocortin receptor 4; in assay [4]; on Vasopressin V1a receptor) was over 10 µM each time. Moreover, the AC50 at Adenosine receptor A1 was over 10 µM; in [5] it was over 10 µM; in assay [7], over 30 µM; at Histamine H1 receptor, over 10 µM; on Mu-type opioid receptor [8], over 30 µM.

At Mu-type opioid receptor [8], `CC/C(=C(\c1ccccc1)c1ccc(OCCN(C)C)cc1)c1ccccc1` [TAMOXIFEN] had an AC50 of over 30 µM.

Regarding `C#C[C@]1(O)CC[C@H]2[C@@H]3[C@H](C)CC4=C(CCC(=O)C4)[C@H]3CC[C@@]21C` [TIBOLONE], the AC50 (in [10]; on Adenosine receptor A1; at Mu-type opioid receptor [6]; in assay [11]; on Cannabinoid receptor 1 [9]) was over 30 µM each time.

Consider `COc1cccc(C2(O)CCCCC2CN(C)C)c1` (stereo unspecified) [TRAMADOL], for which the AC50 was over 10 µM on Cannabinoid receptor 1 [1]; over 30 µM on Melanocortin receptor 4; over 30 µM in assay [10]; over 10 µM on Vasopressin V1a receptor; over 30 µM at Adenosine receptor A1; over 30 µM in assay [11]. Also, the AC50 on Cannabinoid receptor 1 [9] was over 30 µM.

Take `Cc1nnc2n1-c1ccc(Cl)cc1C(c1ccccc1Cl)=NC2` [TRIAZOLAM]: the AC50 in [2] is over 30 µM; in assay [3], over 30 µM; at Melanocortin receptor 4 it was over 30 µM; in assay [10], over 30 µM; in [4] it was over 10 µM; on Vasopressin V1a receptor, over 30 µM. Also, the AC50 is over 30 µM at Adenosine receptor A1; over 30 µM in assay [5]; over 30 µM in assay [7]; over 10 µM at Histamine H1 receptor; over 30 µM at Mu-type opioid receptor [8]; over 30 µM on Cannabinoid receptor 1 [9].

The values are drawn from ChEMBL document CHEMBL5291721, “A preclinical secondary pharmacology resource illuminates target-adverse drug reaction associations of marketed drugs” (Nat Commun, 2023).
